Reference: patent US6703376B2, “Use of uridine triphosphates and related compounds for the prevention and treatment of pneumonia in immobilized patients” (Inspire Pharmaceuticals, Inc., priority 1996, dated 2004)
Where two headings read alike, the source gives them in different places.

How the values were obtained:
[1] = system: anesthetized and ventilated dogs; conditions: cited from earlier work
[2] = system: goblet cells in human airway epithelial explants; conditions: tissues from healthy individuals and patients with CF; cited from earlier work
[3] = system: conscious adult ewes; experiment: Trachael mucus velocity (TMV) study, fluoroscopy of radiopaque disks; type: in vivo, sheep; conditions: for maximal effect on tracheal mucus velocity: 400 μmole (4 ml of 10^−1M) nebulized, mean±standard error, n=6, 15 min after administration; for effect on tracheal mucus velocity: doses 4 to 400 μmole; for effect on tracheal mucus velocity / duration of significant effects on TMV after administration / time of maximal effect on TMV after administration: nebulized; for duration of significant effects on TMV after administration: highest dose (400 μmole); for time of maximal effect on TMV after administration: adult ewes
Excerpt: The effects of UTP and U2P4 on trachael mucus velocity (TMV) were studied using the following procedures: The nasal passages of conscious adult ewes were anesthetized with a 2% lidocaine solution. After local anesthesia was produced, a modified endotracheal tube 7.5 mm was placed such that the cuff was just below the vocal cords (verified by fluoroscopy). Inspired air was warmed and humidified. The cuff of the endotracheal tube was inflated only during administation of the test compound to minimize possible impairment of TMV by the cuff. Test compounds were administered by nebulization in a volume of 4 mL over a period of 10-12 min. TMV was measured by fluroscopy. Ten to twenty radiopaque disks (Teflon®/bismuth trioxide; 1 mm diameter, 0.8 mm thick, weighing 1.8 mg) were introduced into the trachea through a modified suction catheter with a puff of compressed air (3-4 L/min). Velocities of the individual disks were recorded on videotape from a portable image intensifier unit. Individual disk velocities were calculated by measuring the distance traveled by each disk during a 1 min observation period. Values reported are the means of the individual disk velocities. A collar was worn by the sheep which was used as a standard to correct for magnification errors inherent in the fluoroscope.

[4] = system: cultured human epithelial cells; conditions: cells from normal adult humans and CF patients; cited from earlier work
[5] = system: human nasal epithelial cells; conditions: cited from earlier work
[6] = system: healthy adult ewes; experiment: Mucociliary clearance study, 99mTc-HSA clearance by gamma camera; type: in vivo, sheep; conditions: 400 μmole nebulized; initial results n=2; compared to saline control
Method: In this study healthy adult ewes were given 99 mTc-labeled human serum albumin (99 mTc-HSA) via a nebulized aerosol. The 99 mTC-HSA (20 mCi) was administered over 5 min through a nasotracheal tube introduced under local anesthesia with 2% lidocaine. After administration of the 99 mTc-HSA, the animals were given a test compound: either UTP or U2P4. Test compounds were administered by nebulization in a volume of 4 mL over a period of 10-12 min. The test compounds were given at a dose of 400 μmole. After the administration of the test compound, the animals were extubated. Clearance of the radiolabeled particles was monitored with a gamma camera. Measurements were made at 0, 5, 10, 15, 20, 25, 30, 35, 40, 45, 50, 55, 60, […], 90, 105 and 120 min.

[7] = system: normal volunteers; conditions: acute; cited from earlier work

Structure (SMILES) | effects on peak inspiratory airway pressure, mean pulmonary artery pressure, heart rate, cardiac output, thoracic aortic pressure, electrocardiogram, arterial blood gases ([1]; aerosol, 10^−2 M and 10^−1 M in nebulizer) | changes in mean pulmonary artery pressure, heart rate, cardiac output, mean arterial pressure ([1]; intravenous, sequential doses 0.1, 1, 3 and 5 mmoles/kg infused over 10 minutes) | mucin secretion by goblet cells [2] | maximal effect on tracheal mucus velocity [3] | effect on tracheal mucus velocity [3] | duration of significant effects on TMV after administration [3] | time of maximal effect on TMV after administration [3] | cilia beat frequency [4] | Cl- secretion ([5]; cultured nasal epithelial cells from cystic fibrosis (CF) patients) | Cl- secretion ([5]; normal human nasal epithelial cells, apical application) | clearance of radiolabeled particles (99mTc-HSA) [6] | improvement of mucociliary clearance (MCC) [7]
O=c1ccn([C@@H]2O[C@H](COP(=O)(O)OP(=O)(O)OP(=O)(O)O)[C@@H](O)[C@H]2O)c(=O)[nH]1 [UTP, uridine 5′-triphosphate] | no significant effects | no significant changes | increase the rate and total amount of mucin secretion | 125±7 % of baseline | significant dose-related effects | up to 4 h | 15 min | increase in cilia beat frequency | This response was also observed | increased Cl- secretion in a concentration-dependent manner | promote clearance of the radiolabeled particles | 2.5 fold
O=c1ccn([C@@H]2O[C@H](COP(=O)(O)OP(=O)(O)OP(=O)(O)OP(=O)(O)OC[C@H]3O[C@@H](n4ccc(=O)[nH]c4=O)[C@H](O)[C@@H]3O)[C@@H](O)[C@H]2O)c(=O)[nH]1 [U2P4, P1,P4-di(uridine-5′)tetraphosphate] |  |  |  | 144±9 % of baseline | significant dose-related effects | ≤ 2 h | 15 min |  |  |  | promote clearance of the radiolabeled particles | 
